Assay results as given in patent publication US4510158A, “2-Phenylindole derivatives, their use as complement inhibitors” (Sterling Drug Inc., priority 1984, dated 1985).

Key:
[1] = system: human complement (C1-C9), classical complement pathway; assay: Hemolytic molecular titrations of classical complement activity (lysis of sensitized sheep erythrocytes by normal human serum); type: biochemical; settings: concentration effecting 50% suppression of lysis (Z/Zo=0.5), 37° C., 60 min, read-out: Classical Complement Pathway Inhibition IC50
Protocol: (§1) The compounds were evaluated in vitro for their inhibition of human complement (C1-C9) using hemolytic molecular titrations, and the reverse passive Arthus reaction (RPAR) in guinea pigs was chosen as a complement mediated model of acute inflammation to be used to identify compounds with in vivo complement inhibitory activity.
Hemolytic molecular titrations of classical complement activity were performed according to Rapp and Borsos [Molecular Basis of Complement Action, Appleton-Century-Crofts, New York, NY, 1970] and complement inhibition assessed according to Hong et al. (J. Immunol. 1979, Vol. 122, 2418). Operationally, the test compound was maintained in the presence of complement during the lytic reaction of sensitized erythrocytes. Equal volumes (0.2 ml) of normal human serum (NHS), diluted in GVB^++ [Mayer, M. M. in Kabat and Mayer's Experimental Immunochemistry, 2nd Ed.; Charles C. Thomas, Springfield, Ill., 1961, p. 133] to effect lysis of Z=1, and test compound at various concentrations were mixed at 0° C. […] EA (0.2 ml of 1.5×10^8 cells/ml) and 1.8 ml of GVB^++ were added to the reaction mixture followed by incubating at 37° C. for 60 min. The extent of lysis was determined spectrophotometrically at 412 nm. The ratio of treated to untreated (Z/Zo) reaction mixtures was determined as a function of test compound concentration.

[2] = system: reverse passive Arthus reaction (RPAR); assay: Reverse Passive Arthus Reaction (RPAR) in guinea pigs, complement mediated model of acute inflammation; type: in vivo, guinea pig; settings: 80 mg/kg iv, 20 min before elicitation; p = 0.001
Protocol: as §1

| Molecule | IC50 [1] [µM] | RPAR % Inhib. [2] [%] |
| --- | --- | --- |
| Gold sodium thiomalate [reference compound] | 1070 ± 90 | – |
| O=C(O)c1ccc(-c2c(-c3ccccc3)[nH]c3ccccc23)cc1 [Example 15, 4-(2-Phenyl-1H-indol-3-yl)benzoic acid] | 105 ± 4 | – |
| O=C(O)C1CC=C(c2c(-c3ccccc3)[nH]c3ccccc23)CC1 (stereo not shown) [Example 1, 4-(2-Phenyl-1H-indol-3-yl)-3-cyclohexene-1-carboxylic acid] | 135 ± 2 | 64 ± 7 |
